Earlier results as cited in paper PMC10555500, “Evaluation of the Antiproliferative Properties of CpRu Complexes Containing N-Methylated Triazaphosphaadamantane Derivatives” (Bioinorganic Chemistry and Applications, 2023).

Columns and labels:
Parameters in all cases: method as in doi:10.1021/acsomega.8b02849, PMID 31241925
Conditions in all cases: positive control; ref [44], [45]; cited from earlier work
[1] = tested on: MCF-7 breast cancer cells
[2] = tested on: normal human fibroblasts (HDF)
[3] = tested on: MDA-MB-231 breast cancer cells

Q: Which IC50 [1] does the source give for `N.N.[Cl][Pt][Cl]` [Cisplatin, cis-[PtCl2(NH3)2]] here?
A: The IC50 was 38 ± 1.4 µM.

Q: And the IC50 [2]?
A: Its IC50 is roughly 100 µM.

Q: And the IC50 [3]?
A: Its IC50 is greater than 100 µM.
